Experiments:
windgrass = test: Test D postemergence; format: in vivo, Apera spica-venti
Procedure, shortened: (§1)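 In a controlled growth environment, treated and control plants were held 7 to 21 days, then compared visually. Damage was scored 0–100, where 100 means complete control. Sprays contained surfactant in a non-phytotoxic solvent; post-applied plants were at the 1- to 4-leaf stage.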

field poppy = test: Test D postemergence; format: in vivo, Papaver rhoeas
Text: (§2) Seeds of plant species selected from bluegrass (annual bluegrass, Poa annua), blackgrass (Alopecurus myosuroides), canarygrass (littleseed canarygrass, Phalaris minor), chickweed (common chickweed, Stellaria media), galium (catchweed bedstraw, Galium aparine), bromegrass, downy (downy bromegrass, Bromus tectorum), field poppy (Papaver rhoeas), field violet (Viola arvensis), green foxtail (Setaria viridis), deadnettle (henbit deadnettle, Lamium amplexicaule), Italian ryegrass (Lolium multiflorum), kochia (Kochia scoparia), lambsquarters (Chenopodium album), oilseed rape (Brassica napus), pigweed (Amaranthus retroflexus), chamomile (scentless chamomile, Matricaria inodora), Russian thistle (Salsola kali), speedwell (bird's-eye speedwell, Veronica persica), spring barley (Hordeum vulgare), spring wheat (Triticum aestivum), wild buckwheat (Polygonum convolvulus), wild mustard (Sinapis arvensis), wild oat (Avena fatua), wild radish (Raphanus raphanistrum), windgrass (Apera spica-venti), winter barley (Hordeum vulgare), and winter wheat (Triticum aestivum) were planted into a silt loam soil and treated preemergence with test chemicals formulated in a non-phytotoxic solvent mixture which included a surfactant.
(§3) At the same time, these species were planted in pots containing Redi-Earth® planting medium (Scotts Company, 14111 Scottslawn Road, Marysville, Ohio 43041) comprising spaghnum peat moss, vermiculite, wetting agent and starter nutrients and treated with postemergence applications of the test chemicals formulated in the same manner. Plants ranged in height from 2 to 18 cm (1- to 4-leaf stage). Treated plants and controls were maintained in a controlled growth environment for 7 to 21 days after which time all species were compared to controls and visually evaluated. Plant response ratings, summarized in Table D, are based on a scale of 0 to 100 where 0 is no effect and 100 is complete control. A dash (-) response means no test result.

chamomile = test: Test D postemergence; format: in vivo, Matricaria inodora
Text: as §2, §3

bromegrass, downy = test: Test D preemergence; format: in vivo, Bromus tectorum
Text: as §2, §3

chickweed = test: Test D preemergence; format: in vivo, Stellaria media
Procedure, shortened: as §1

lambsquarters [1] = test: Test D preemergence; format: in vivo, Chenopodium album
Text: as §2, §3

deadnettle = test: Test D postemergence; format: in vivo, Lamium amplexicaule
Procedure, shortened: as §1

lambsquarters [2] = test: Test D postemergence; format: in vivo, Chenopodium album
Text: as §2, §3

wild oat = test: Test D postemergence; format: in vivo, Avena fatua
Text: as §2, §3

winter wheat = test: Test D preemergence; format: in vivo, Triticum aestivum
Text: as §2, §3

spring wheat = test: Test D preemergence; format: in vivo, Triticum aestivum
Text: as §2, §3

[3] = 62 g ai/ha, scale 0 to 100 (0 no effect, 100 complete control)
[4] = 125 g ai/ha, scale 0 to 100 (0 no effect, 100 complete control)
[5] = 250 g ai/ha, scale 0 to 100 (0 no effect, 100 complete control)
[6] = 31 g ai/ha, scale 0 (no effect) to 100 (complete control)

FC(F)(F)COc1cnn(-c2ccccc2Oc2ncc(Cl)cn2)c1 [Compound 138, 5-chloro-2-[2-[4-(2,2,2-trifluoroethoxy)-1H-pyrazol-1-yl]phenoxy]pyrimidine]
40%: pest or weed control at 62 g/ha (field poppy; Papaver rhoeas, post-emergence, 62 g ai/ha, scale 0 to 100 (0 no effect, 100 complete control), read-out: Plant response rating, Field Poppy)
10%: pest or weed control at 125 g/ha (bromegrass, downy; Bromus tectorum, pre-emergence, 125 g ai/ha, scale 0-100, read-out: Plant response rating, Bromegrass, Downy) | pest or weed control at 31 g/ha (lambsquarters [1]; Chenopodium album, pre-emergence, 31 g ai/ha, scale 0-100, read-out: Plant response rating, Lambsquarters) | pest or weed control at 125 g/ha (wild oat; Avena fatua, post-emergence, 125 g ai/ha, scale 0 to 100 (0 no effect, 100 complete control), read-out: Plant response rating, Oat, Wild) | plant injury at 31 g/ha (spring wheat; Triticum aestivum, pre-emergence, 31 g ai/ha, scale 0 (no effect) to 100 (complete control), read-out: Plant response rating, Wheat, Spring)
55%: pest or weed control at 16 g/ha (lambsquarters [2]; Chenopodium album, post-emergence, 16 g ai/ha, scale 0-100, read-out: Plant response rating, Lambsquarters)
0%: pest or weed control at 16 g/ha (windgrass; Apera spica-venti, post-emergence, 16 g ai/ha, scale 0-100, read-out: Plant response rating, Windgrass) | pest or weed control at 31 g/ha (windgrass; Apera spica-venti, post-emergence, 31 g ai/ha, scale 0 to 100 (0 no effect, 100 complete control), read-out: Plant response rating, Windgrass) | pest or weed control at 16 g/ha (chamomile; Tripleurospermum inodorum, post-emergence, 16 g ai/ha, scale 0-100, read-out: Plant response rating, Chamomile) | pest or weed control at 31 g/ha (chamomile; Tripleurospermum inodorum, post-emergence, 31 g ai/ha, scale 0 to 100 (0 no effect, 100 complete control), read-out: Plant response rating, Chamomile) | pest or weed control at 62 g/ha (chamomile; Tripleurospermum inodorum, post-emergence, 62 g ai/ha, scale 0 to 100 (0 no effect, 100 complete control), read-out: Plant response rating, Chamomile) | pest or weed control at 125 g/ha (chamomile; Tripleurospermum inodorum, post-emergence, 125 g ai/ha, scale 0 to 100 (0 no effect, 100 complete control), read-out: Plant response rating, Chamomile) | pest or weed control at 16 g/ha (bromegrass, downy; Bromus tectorum, pre-emergence, 16 g ai/ha, scale 0 (no effect) to 100 (complete control), read-out: Plant response rating, Bromegrass, Downy) | pest or weed control at 31 g/ha (bromegrass, downy; Bromus tectorum, pre-emergence, 31 g ai/ha, scale 0-100, read-out: Plant response rating, Bromegrass, Downy) | pest or weed control at 62 g/ha (bromegrass, downy; Bromus tectorum, pre-emergence, 62 g ai/ha, scale 0-100, read-out: Plant response rating, Bromegrass, Downy) | pest or weed control at 31 g/ha (wild oat; Avena fatua, post-emergence, 31 g ai/ha, scale 0 to 100 (0 no effect, 100 complete control), read-out: Plant response rating, Oat, Wild) | plant injury at 16 g/ha (winter wheat; Triticum aestivum, pre-emergence, 16 g ai/ha, scale 0 (no effect) to 100 (complete control), read-out: Plant response rating, Wheat, Winter) | plant injury at 16 g/ha (spring wheat; Triticum aestivum, pre-emergence, 16 g ai/ha, scale 0 (no effect) to 100 (complete control), read-out: Plant response rating, Wheat, Spring)
100%: pest or weed control at 16 g/ha (chickweed; Stellaria media, pre-emergence, 16 g ai/ha, scale 0 (no effect) to 100 (complete control), read-out: Plant response rating, Chickweed) | pest or weed control at 31 g/ha (chickweed; Stellaria media, pre-emergence, 31 g ai/ha, scale 0-100, read-out: Plant response rating, Chickweed) | pest or weed control at 62 g/ha (chickweed; Stellaria media, pre-emergence, 62 g ai/ha, scale 0-100, read-out: Plant response rating, Chickweed) | pest or weed control at 125 g/ha (chickweed; Stellaria media, pre-emergence, 125 g ai/ha, scale 0-100, read-out: Plant response rating, Chickweed) | pest or weed control at 125 g/ha (lambsquarters [1]; Chenopodium album, pre-emergence, 125 g ai/ha, scale 0-100, read-out: Plant response rating, Lambsquarters)
30%: pest or weed control at 16 g/ha (field poppy; Papaver rhoeas, post-emergence, 16 g ai/ha, scale 0-100, read-out: Plant response rating, Field Poppy)
20%: pest or weed control at 125 g/ha (windgrass; Apera spica-venti, post-emergence, 125 g ai/ha, scale 0 to 100 (0 no effect, 100 complete control), read-out: Plant response rating, Windgrass)
60%: pest or weed control at 62 g/ha (lambsquarters [1]; Chenopodium album, pre-emergence, 62 g ai/ha, scale 0-100, read-out: Plant response rating, Lambsquarters) | pest or weed control at 31 g/ha (lambsquarters [2]; Chenopodium album, post-emergence, 31 g ai/ha, scale 0 to 100 (0 no effect, 100 complete control), read-out: Plant response rating, Lambsquarters) | pest or weed control at 62 g/ha (lambsquarters [2]; Chenopodium album, post-emergence, 62 g ai/ha, scale 0 to 100 (0 no effect, 100 complete control), read-out: Plant response rating, Lambsquarters) | pest or weed control at 125 g/ha (lambsquarters [2]; Chenopodium album, post-emergence, 125 g ai/ha, scale 0 to 100 (0 no effect, 100 complete control), read-out: Plant response rating, Lambsquarters)
45%: pest or weed control at 16 g/ha (lambsquarters [1]; Chenopodium album, pre-emergence, 16 g ai/ha, scale 0 (no effect) to 100 (complete control), read-out: Plant response rating, Lambsquarters)
35%: pest or weed control at 31 g/ha (field poppy; Papaver rhoeas, post-emergence, 31 g ai/ha, scale 0 to 100 (0 no effect, 100 complete control), read-out: Plant response rating, Field Poppy)
5%: pest or weed control at 16 g/ha (deadnettle; Lamium amplexicaule, post-emergence, 16 g ai/ha, scale 0-100, read-out: Plant response rating, Deadnettle) | pest or weed control at 31 g/ha (deadnettle; Lamium amplexicaule, post-emergence, 31 g ai/ha, scale 0 to 100 (0 no effect, 100 complete control), read-out: Plant response rating, Deadnettle) | pest or weed control at 16 g/ha (wild oat; Avena fatua, post-emergence, 16 g ai/ha, scale 0-100, read-out: Plant response rating, Oat, Wild) | pest or weed control at 62 g/ha (wild oat; Avena fatua, post-emergence, 62 g ai/ha, scale 0 to 100 (0 no effect, 100 complete control), read-out: Plant response rating, Oat, Wild) | plant injury at 31 g/ha (winter wheat; Triticum aestivum, pre-emergence, 31 g ai/ha, scale 0 (no effect) to 100 (complete control), read-out: Plant response rating, Wheat, Winter) | plant injury at 62 g/ha (winter wheat; Triticum aestivum, pre-emergence, 62 g ai/ha, scale 0-100, read-out: Plant response rating, Wheat, Winter) | plant injury at 125 g/ha (winter wheat; Triticum aestivum, pre-emergence, 125 g ai/ha, scale 0-100, read-out: Plant response rating, Wheat, Winter)
25%: pest or weed control at 125 g/ha (deadnettle; Lamium amplexicaule, post-emergence, 125 g ai/ha, scale 0 to 100 (0 no effect, 100 complete control), read-out: Plant response rating, Deadnettle)
15%: pest or weed control at 62 g/ha (windgrass; Apera spica-venti, post-emergence, 62 g ai/ha, scale 0 to 100 (0 no effect, 100 complete control), read-out: Plant response rating, Windgrass) | pest or weed control at 62 g/ha (deadnettle; Lamium amplexicaule, post-emergence, 62 g ai/ha, scale 0 to 100 (0 no effect, 100 complete control), read-out: Plant response rating, Deadnettle) | plant injury at 62 g/ha (spring wheat; Triticum aestivum, pre-emergence, 62 g ai/ha, scale 0-100, read-out: Plant response rating, Wheat, Spring) | plant injury at 125 g/ha (spring wheat; Triticum aestivum, pre-emergence, 125 g ai/ha, scale 0-100, read-out: Plant response rating, Wheat, Spring)
75%: pest or weed control at 125 g/ha (field poppy; Papaver rhoeas, post-emergence, 125 g ai/ha, scale 0 to 100 (0 no effect, 100 complete control), read-out: Plant response rating, Field Poppy)

N#Cc1cccc(Oc2ncc(Cl)cn2)c1-n1cc(-n2ccc(C(F)(F)F)n2)cn1 [Compound 284]
98: Plant response rating, Lambsquarters (lambsquarters [2]; [3])
25: Plant response rating, Oat, Wild (wild oat; [3]) | Plant response rating, Oat, Wild (wild oat; [4]) | Plant response rating, Wheat, Winter (winter wheat; 250 g ai/ha, scale 0-100)
20: Plant response rating, Windgrass (windgrass; 31 g ai/ha, scale 0-100) | Plant response rating, Windgrass (windgrass; [3]) | Plant response rating, Chickweed (chickweed; 125 g ai/ha, scale 0-100) | Plant response rating, Oat, Wild (wild oat; 31 g ai/ha, scale 0-100) | Plant response rating, Wheat, Winter (winter wheat; 125 g ai/ha, scale 0-100) | Plant response rating, Wheat, Spring (spring wheat; 125 g ai/ha, scale 0-100)
35: Plant response rating, Oat, Wild (wild oat; [5])
30: Plant response rating, Windgrass (windgrass; [4]) | Plant response rating, Windgrass (windgrass; [5]) | Plant response rating, Chickweed (chickweed; 250 g ai/ha, scale 0-100) | Plant response rating, Lambsquarters (lambsquarters [1]; [6]) | Plant response rating, Wheat, Spring (spring wheat; 250 g ai/ha, scale 0-100)
85: Plant response rating, Lambsquarters (lambsquarters [2]; 31 g ai/ha, scale 0-100)
10: Plant response rating, Chamomile (chamomile; [4]) | Plant response rating, Chamomile (chamomile; [5]) | Plant response rating, Bromegrass, Downy (bromegrass, downy; 250 g ai/ha, scale 0-100) | Plant response rating, Chickweed (chickweed; [6]) | Plant response rating, Wheat, Spring (spring wheat; [6])
70: Plant response rating, Field Poppy (field poppy; [3]) | Plant response rating, Deadnettle (deadnettle; 31 g ai/ha, scale 0-100)
65: Plant response rating, Field Poppy (field poppy; 31 g ai/ha, scale 0-100)
15: Plant response rating, Chickweed (chickweed; 62 g ai/ha, scale 0-100) | Plant response rating, Wheat, Winter (winter wheat; [6])
0: Plant response rating, Chamomile (chamomile; 31 g ai/ha, scale 0-100) | Plant response rating, Chamomile (chamomile; [3]) | Plant response rating, Bromegrass, Downy (bromegrass, downy; [6]) | Plant response rating, Bromegrass, Downy (bromegrass, downy; 62 g ai/ha, scale 0-100) | Plant response rating, Bromegrass, Downy (bromegrass, downy; 125 g ai/ha, scale 0-100)
100: Plant response rating, Field Poppy (field poppy; [4]) | Plant response rating, Field Poppy (field poppy; [5]) | Plant response rating, Lambsquarters (lambsquarters [1]; 62 g ai/ha, scale 0-100) | Plant response rating, Lambsquarters (lambsquarters [1]; 125 g ai/ha, scale 0-100) | Plant response rating, Lambsquarters (lambsquarters [1]; 250 g ai/ha, scale 0-100) | Plant response rating, Deadnettle (deadnettle; [3]) | Plant response rating, Deadnettle (deadnettle; [4]) | Plant response rating, Deadnettle (deadnettle; [5]) | Plant response rating, Lambsquarters (lambsquarters [2]; [4]) | Plant response rating, Lambsquarters (lambsquarters [2]; [5])

From patent US9695155B2, “Herbicidal substituted pyrimidinyloxy benzene compounds” (E. I. DU PONT DE NEMOURS AND COMPANY, priority 2013, dated 2017)
